How the values were obtained:
[1] = test system: Helicobacter pylori; settings: stomach tissue of infected mice, 37° C. for 12 hours
From the text: Small black mice were fed with a broth containing 1.0×10^9 CFU/ml Helicobacter pylori continually for 6 times in 2 weeks, to establish a Helicobacter pylori-infected animal model. The mice were fasted one night before fed with Helicobacter pylori, to decrease the mucus in the stomach, and thereby, increase the probability of infection. Then, the Helicobacter pylori-infected mice (6 mice each group) were fed with (a) the nano medicinal carrier obtained from example 1 (2) (control group); (b) 30 mg/kg amoxicillin; and (c) nano medicinal carrier (the concentration of amoxicillin, 30 mg/kg) obtained from example 1 (4) once daily for 10 days.
Campylobacter-like organism assay (CLO assay) was conducted to evaluate the effect of nano medicinal carrier on treating the Helicobacter pylori-infected mice. The internal side of the stomach tissue of the Helicobacter pylori-infected mice was touch with CLO gel and compressed, the tissue was incubated at 37° C. for 12 hours, and the variation of the color of the CLO gel was observed. The CLO gel without Helicobacter pylori (contacted with deionized water) is a yellow color. The CLO gel with a little of Helicobacter pylori is a yellow-orange color. The CLO gel with a lot of Helicobacter pylori is a red color. A darker color represents a higher amount of Helicobacter pylori.

[2] = test system: Helicobacter pylori; settings: infected mice, fed 30 mg/kg amoxicillin once daily for 10 days
From the text: Small black mice were fed with a broth containing 1.0×10^9 CFU/ml Helicobacter pylori continually for 6 times in 2 weeks, to establish a Helicobacter pylori-infected animal model. The mice were fasted one night before fed with Helicobacter pylori, to decrease the mucus in the stomach, and thereby, increase the probability of infection. Then, the Helicobacter pylori-infected mice (6 mice each group) were fed with (a) the nano medicinal carrier obtained from example 1 (2) (control group); (b) 30 mg/kg amoxicillin; and (c) nano medicinal carrier (the concentration of amoxicillin, 30 mg/kg) obtained from example 1 (4) once daily for 10 days. Then, the mice were sacrificed, and the tissue in the stomach was taken off to conduct the colony number experiment.

## CC1(C)S[C@@H]2[C@H](NC(=O)[C@H](N)c3ccc(O)cc3)C(=O)N2[C@H]1C(=O)O [amoxicillin solution, amoxicillin]
[1]
  color of the CLO gel (darker color = higher amount of Helicobacter pylori): red color
[2]
  The colony number of Helicobacter pylori in the stomach tissue of the mice: 316.9 ± 30.5
